# According to PMC10840709 (Cell chemical biology, 2023):
# Tests used:
# [1] = target: BRAF V600E (Homo sapiens, UniProt P15056, V600E); experiment: NanoBRET target engagement in HEK293 cells; format: cell-based
# [2] = target: BRAF (Homo sapiens, UniProt P15056); experiment: HotSpot […]-ATP kinase assay; format: biochemical
# [3] = target: CSNK2A2 (Homo sapiens, UniProt P19784); experiment: HotSpot […]-ATP kinase assay; format: biochemical
# Sequence of CSNK2A2 (P19784 whole entry): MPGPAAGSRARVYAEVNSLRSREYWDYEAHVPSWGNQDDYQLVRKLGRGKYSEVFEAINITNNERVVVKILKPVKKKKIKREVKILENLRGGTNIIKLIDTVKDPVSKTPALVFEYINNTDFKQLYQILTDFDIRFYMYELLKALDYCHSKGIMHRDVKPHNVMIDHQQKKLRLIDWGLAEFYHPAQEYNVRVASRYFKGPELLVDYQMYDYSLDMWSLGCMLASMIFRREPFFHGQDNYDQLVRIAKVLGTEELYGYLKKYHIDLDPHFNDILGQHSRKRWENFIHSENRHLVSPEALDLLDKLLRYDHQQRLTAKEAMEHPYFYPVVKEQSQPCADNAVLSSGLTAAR
# Sequence of BRAF V600E (P15056 2-766 V600E): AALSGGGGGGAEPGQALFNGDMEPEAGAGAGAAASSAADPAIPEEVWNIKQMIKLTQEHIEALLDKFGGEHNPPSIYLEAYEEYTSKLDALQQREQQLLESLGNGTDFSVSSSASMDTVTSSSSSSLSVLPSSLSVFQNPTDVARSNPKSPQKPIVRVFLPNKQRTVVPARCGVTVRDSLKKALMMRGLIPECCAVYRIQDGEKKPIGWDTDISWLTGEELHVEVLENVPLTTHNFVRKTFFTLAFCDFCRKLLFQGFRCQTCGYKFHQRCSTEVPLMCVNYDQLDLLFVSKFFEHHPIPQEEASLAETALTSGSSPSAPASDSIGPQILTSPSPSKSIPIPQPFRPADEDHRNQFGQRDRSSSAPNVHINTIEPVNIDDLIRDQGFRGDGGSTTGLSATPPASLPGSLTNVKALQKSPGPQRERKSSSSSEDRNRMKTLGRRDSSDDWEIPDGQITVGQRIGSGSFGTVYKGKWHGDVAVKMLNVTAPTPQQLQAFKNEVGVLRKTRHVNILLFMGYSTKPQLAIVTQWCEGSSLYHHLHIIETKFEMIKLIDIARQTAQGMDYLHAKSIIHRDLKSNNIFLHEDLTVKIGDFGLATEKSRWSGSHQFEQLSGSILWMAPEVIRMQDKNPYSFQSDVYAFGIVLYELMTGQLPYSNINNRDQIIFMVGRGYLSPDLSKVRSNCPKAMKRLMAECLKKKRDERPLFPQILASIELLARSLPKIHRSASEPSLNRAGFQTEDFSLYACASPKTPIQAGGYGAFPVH
# Sequence of BRAF (P15056 2-766): as the sequence (P15056 2-766 V600E) above, with E599V counted along it
SMILES,IC50 [1],IC50 [2],IC50 [3]
Cc1ccc(NC(=O)c2ccc(CN3CC[C@H](N(C)C)C3)c(C(F)(F)F)c2)cc1Nc1nccc(-c2cncnc2)n1 [bafetinib],0.217 µM,0.0416 µM,–
CCN1CCN(Cc2ccc(Nc3ncc(F)c(-c4cc(F)c5nc(C)n(C(C)C)c5c4)n3)nc2)CC1 [abemaciclib],–,–,0.0364 µM
